Experimental findings from ChEMBL document CHEMBL4342439, “Targeting Stimulator of Interferon Genes (STING): A Medicinal Chemistry Perspective” (J Med Chem, 2020) are described below.

As usually defined, the EC50 is the concentration that produces a half-maximal response. What is called Kd is the equilibrium constant for the complex coming apart. Higher therefore signals a looser complex. Broadly, the IC50 is the point on the concentration scale where inhibition reaches its midpoint. Low readings indicate higher potency, high ones lower potency.

For experiment [1], the target named is Stimulator of interferon genes protein (Homo sapiens, UniProt Q86WV6, G230A/R293Q/R71H). Nature of the experiment: Displacement of [3H]-cGAMP from full length STING HAQ mutant in human THP1 cells by filtration binding assay. It is filed as cell-based. Background: In a radioligand displacement assay an active substance lowers the binding of a labelled ligand.
Stimulator of interferon genes protein (Homo sapiens, UniProt Q86WV6, G230A/R293Q/R71H), sequence (Q86WV6 whole entry R71H/G230A/R293Q): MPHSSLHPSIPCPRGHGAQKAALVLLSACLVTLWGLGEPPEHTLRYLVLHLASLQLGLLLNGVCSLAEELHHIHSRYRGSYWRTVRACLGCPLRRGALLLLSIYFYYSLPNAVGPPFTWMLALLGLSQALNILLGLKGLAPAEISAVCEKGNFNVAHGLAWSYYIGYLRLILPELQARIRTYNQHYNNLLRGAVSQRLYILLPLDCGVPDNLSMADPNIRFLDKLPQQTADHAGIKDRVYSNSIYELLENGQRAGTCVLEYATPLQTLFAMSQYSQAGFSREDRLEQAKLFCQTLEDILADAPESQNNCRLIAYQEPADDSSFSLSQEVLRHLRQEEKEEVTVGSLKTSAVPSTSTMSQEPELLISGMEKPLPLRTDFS

In experiment [2] the target is T1, Stimulator of interferon genes protein (Homo sapiens, UniProt Q86WV6). Briefly: Inhibition of STING in human THP1 cells by IFN reporter gene assay. The class given is cell-based. On the technique in general: In a reporter assay the amount or activity of a reporter protein is the signal.
T1 sequence (Q86WV6 whole entry): as the sequence (Q86WV6 whole entry R71H/G230A/R293Q) above, with H71R, A230G, Q293R counted along it
The nature of experiment [3]: Binding affinity to human STING H232 mutant by ITC assay.
Experiment [4] relates to Stimulator of interferon genes protein (Homo sapiens), Q86WV6 [R71H,G230A,R293Q]. Nature of the experiment: Effect on full length STING HAQ mutant in human THP1 cells at 10 uM relative to 2',3- cGAMP. It is filed as cell-based.
Stimulator of interferon genes protein (Homo sapiens), Q86WV6 [R71H,G230A,R293Q], sequence (Q86WV6 whole entry R71H/G230A/R293Q): as the sequence (Q86WV6 whole entry R71H/G230A/R293Q) above
Experiment [5] deals with T1, Stimulator of interferon genes protein. Nature of the experiment: Inhibition of STING in human THP1 cells in presence of digitonin by IFN reporter gene assay. The class given is cell-based.
For experiment [6] the target is unchanged. Briefly: Inhibition of STING in human THP1 cells. It is filed as cell-based.
Experiment [7] shares this target. Nature of the experiment: Inhibition of wild type human STING by SPA assay.
Experiment [8] addresses T2, Stimulator of interferon genes protein (Mus musculus, UniProt Q3TBT3).
T2 sequence (Q3TBT3 whole entry): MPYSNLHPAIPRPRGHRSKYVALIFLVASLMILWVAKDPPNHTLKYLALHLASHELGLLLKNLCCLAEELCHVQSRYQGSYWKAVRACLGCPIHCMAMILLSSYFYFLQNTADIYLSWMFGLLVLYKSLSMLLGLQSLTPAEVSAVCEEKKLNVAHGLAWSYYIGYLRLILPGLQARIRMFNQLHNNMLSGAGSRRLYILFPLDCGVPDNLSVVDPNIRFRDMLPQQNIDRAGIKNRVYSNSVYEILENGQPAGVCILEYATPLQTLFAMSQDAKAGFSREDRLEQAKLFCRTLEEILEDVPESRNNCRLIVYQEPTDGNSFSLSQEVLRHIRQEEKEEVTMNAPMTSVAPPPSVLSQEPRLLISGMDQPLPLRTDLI
Briefly: Binding affinity to mouse STING by ITC assay.

A short description of experiment [9]: Inhibition of human STING H232 mutant by SPA assay.
In experiment [10] the target is T1, Stimulator of interferon genes protein. Nature of the experiment: Inhibition of STING in human THP1 cells in presence of PFO by IFN reporter gene assay. The class given is cell-based.
Experiment [11] has the same target. Briefly: Displacement of [3H]-cGAMP from wild type human STING by filtration binding assay.
For experiment [12], the target named is T2, Stimulator of interferon genes protein. Briefly: Displacement of [3H]-cGAMP from mouse STING by filtration binding assay.
The target of experiment [13] is T1, Stimulator of interferon genes protein. Nature of the experiment: Inhibition of STING in human THP1 cells by R232 IRF-luciferase reporter gene assay. The class given is cell-based.

Where only a bound is given, the exact number is not on record here.

For the compound `COc1cc2cc(C(=O)CC(C(=O)O)C(C)C)sc2cc1OC` (configuration not stated), in experiment [1], the midpoint of the response, the EC50, lay at 9590 nM.
`Nc1ncnc2c1ncn2[C@@H]1O[C@@H]2CO[P@@](=O)(S)O[C@@H]3C[C@@H](CO[P@@](=O)(S)O[C@H]2[C@H]1F)O[C@H]3n1cnc2c(N)ncnc21` came in with an EC50 in experiment [2] of 10200 nM.
Compound `Nc1nc2c(ncn2[C@@H]2O[C@@H]3COP(=O)(O)O[C@H]4[C@@H](O)[C@H](n5cnc6c(N)nc(F)nc65)O[C@@H]4COP(=O)(O)O[C@@H]2[C@@H]3O)c(=O)[nH]1` had an EC50 in experiment [1] of 24.6 nM.
Still for that read-out and setting: with `C#C[C@@H]1O[C@@H]2COP(=O)(S)O[C@H]3[C@@H](F)[C@H](n4cnc5c(N)ncnc54)O[C@@H]3COP(=O)(S)O[C@@H]1[C@@H]2O` (some centres not stated) the figure was less than 1 nM; with `COc1cc2sc(C(=O)[C@@H]3C[C@@H]3C(=O)O)cc2c(F)c1OC`, 599 nM.
`Nc1nc2c(nnn2[C@@H]2O[C@@H]3COP(=O)(O)O[C@H]4[C@@H](O)[C@H](n5cnc6c(N)ncnc65)O[C@@H]4COP(=O)(O)O[C@@H]2[C@@H]3O)c(=O)[nH]1` displayed an EC50 in experiment [1] of less than 1 nM.
In the case of `Nc1nc2c(ncn2[C@@H]2O[C@@H]3COP(=O)(O)O[C@@H]4[C@H](O)[C@@H](COP(=O)(O)O[C@@H]2[C@@H]3O)O[C@H]4n2cnc3c(N)ncnc32)c(=O)[nH]1`, binding in [3] was put at a Kd of 2500 nM.
In the case of `COc1cc2cc(C(=O)CC(C)C(=O)O)sc2cc1OC` (configuration not stated), the EC50 in experiment [1] came to 5550 nM.
`C=C1[C@@H](n2cnc3c(N)ncnc32)[C@H](F)[C@@H]2O[P@@](O)(=S)OC[C@H]3O[C@@H](n4cnc5c(=O)[nH]c(N)nc54)[C@H](OP(O)(=S)OC[C@@H]12)[C@@H]3F` (some centres not stated) came in with an Activity in [4] of 430%. Also, in experiment [2], the EC50 turned out to be 740 nM.
`Nc1ncnc2c1ncn2[C@@H]1O[C@@H]2CO[P@@](=O)(S)O[C@@H]3[C@H](F)[C@@H](CO[P@@](=O)(S)O[C@H]2[C@H]1O)O[C@H]3n1cnc2c(N)ncnc21`: the results for the EC50 in experiment [2] and in experiment [5] were 11200 nM and 399 nM, respectively.
Take `Nc1ncnc2c1ncn2[C@@H]1O[C@@H]2CO[P@@](=O)(S)O[C@@H]3[C@H](F)[C@@H](CO[P@@](=O)(S)O[C@H]2[C@H]1F)O[C@H]3n1cnc2c(N)ncnc21`: the EC50 is 4500 nM in experiment [2] and 190 nM in experiment [5].
With `Nc1ncnc2c1ncn2[C@@H]1O[C@@H]2CNC(=O)N[C@H]3[C@@H](O)[C@H](n4cnc5c(N)ncnc54)O[C@@H]3CNC(=O)N[C@H]2[C@H]1O`, in experiment [6], a half-maximal effect (EC50) was put at 25400 nM.
For `CCn1nc(C)cc1C(=O)/N=c1\[nH]c2cc(C(N)=O)ccc2n1C[C@@H](O)c1ccccc1`, the IC50 in experiment [7] came to 14000 nM.
`COc1c(O)cc2oc3cc(O)c(CC=C(C)C)c(O)c3c(=O)c2c1CC=C(C)C` [MANGOSTIN] yielded a Kd in [8] of 137000 nM.
Regarding `COc1cc2cc(C(=O)CCC(=O)OC(C)(C)C)sc2cc1OC`, a half-maximal response in experiment [1] (EC50) required 5990 nM.
`Nc1nc2c(ncn2[C@@H]2S[C@@H]3COP(=O)(O)O[C@H]4[C@@H](O)[C@H](n5cnc6c(N)ncnc65)O[C@@H]4COP(=O)(O)O[C@@H]2[C@@H]3O)c(=O)[nH]1` had an EC50 in experiment [1] of 1.2 nM.
`COc1cc2cc(C(=O)C[C@H](C)C(=O)O)sc2cc1OC` gave an EC50 in experiment [1] of 2740 nM.
As for `CCn1nc(C)cc1C(=O)/N=c1\[nH]c2cc(C(N)=O)cc(OC)c2n1C/C=C/Cn1/c(=N/C(=O)c2cc(C)nn2CC)[nH]c2cc(C(N)=O)cc(OCCCN3CCOCC3)c21`, the EC50 in [9] was 200 nM.
As to `Nc1nc2c(ncn2[C@@H]2O[C@@H]3CO[P@@](=O)(S)O[C@H]4[C@H]5OC[C@]4(CO[P@@](=O)(S)O[C@H]3[C@H]2O)O[C@H]5n2cnc3c(N)ncnc32)c(=O)[nH]1`, the EC50 in [5] came out at 5800 nM.
`COc1cc2cc(C(=O)CCC(=O)O)sc2cc1OC` registered an EC50 in [1] of 1720 nM.
The compound `Nc1nc2c(ncn2[C@@H]2O[C@@H]3COP(=O)(O)O[C@H]4[C@@H](O)[C@H](n5cnc6c(N)nc(F)nc65)O[C@@H]4COP(=O)(O)O[C@@H]2[C@@H]3O)c(=S)[nH]1` had an EC50 in [1] of 1.7 nM.
In experiment [1], `COc1cc2sc(C(=O)C[C@H](C)C(=O)O)cc2cc1Br` had an EC50 of 2640 nM.
Still for that read-out and setting: as for `COc1cc2sc(C(=O)C[C@H](C)C(=O)O)cc2c(F)c1OC`, the figure is 1380 nM.
Turning to `BP1(=O)OC[C@H]2O[C@@H](n3cnc4c(=O)[nH]c(N)nc43)[C@H](OP(=O)(O)OC[C@H]3O[C@@H](n4cnc5c(N)ncnc54)[C@H](O)[C@@H]3O1)[C@@H]2O` (some centres not stated), the figures for the EC50 in [10] and in [2] were less than 100 nM and less than 30000 nM, respectively.
In [7], `CCn1nc(C)cc1C(=O)Nc1nc2cc(C(N)=O)ccc2n1CCCCn1c(NC(=O)c2cc(C)nn2CC)nc2cc(C(N)=O)ccc21` came in with an IC50 of 20 nM.
`NC[C@H]1[C@H]2OP(=O)(O)OC[C@H]3O[C@@H](n4cnc5c(N)ncnc54)[C@H](O)[C@@H]3OP(=O)(O)OC[C@H]1O[C@H]2n1cnc2c(=O)[nH]c(N)nc21` yielded an EC50 in [1] of 21.5 nM.
Regarding `BP1(=O)OC[C@H]2O[C@@H](n3cnc4c(N)ncnc43)[C@H](O)[C@@H]2OP(=O)(O)OC[C@H]2O[C@@H](n3cnc4c(=O)[nH]c(N)nc43)[C@H](O1)[C@@H]2O` (some centres not stated), the EC50 in [10] was less than 100 nM; in experiment [2], less than 30000 nM.
As to `COc1cc2cc(C(=O)C[C@H](C)C(=O)O)sc2cc1Br`, in experiment [1], the response was half-maximal at 894 nM (EC50).
On to `CCC[C@H]1[C@H]2OP(=O)(O)OC[C@H]3O[C@@H](n4cnc5c(N)ncnc54)[C@H](O)[C@@H]3OP(=O)(O)OC[C@H]1O[C@H]2n1cnc2c(=O)[nH]c(N)nc21`, for which the EC50 was no more than 30000 nM in [10] and no more than 100 nM in experiment [2].
`Nc1nc2c(ncn2[C@@H]2O[C@@]34CO[C@@H]2[C@@H]3O[P@](=O)(S)OC[C@@]23CO[C@@H]([C@H](n5cnc6c(N)ncnc65)O2)[C@@H]3O[P@](=O)(S)OC4)c(=O)[nH]1`: the EC50 in experiment [5] worked out at 19300 nM.
Regarding `COc1c(Cl)ccc2c(=O)c3ccc(C(C)(C)C)cc3n(CC(=O)O)c12`, the IC50 in experiment [11] was less than 20000 nM; in [12] it was less than 20000 nM; in [13], greater than 50000 nM.
In turn, `COc1cc2sc(C(=O)[C@H]3C[C@H]3C(=O)O)cc2c(F)c1OC` came in with an EC50 in experiment [1] of 17800 nM.
Compound `Nc1ncnc2c1ncn2[C@@H]1O[C@@H]2CNC(=S)N[C@H]3[C@@H](O)[C@H](n4cnc5c(N)ncnc54)O[C@@H]3CNC(=S)N[C@H]2[C@H]1O` returned an EC50 in [6] of 22200 nM.
`COc1cc2sc(C(=O)C[C@H](C)C(=O)O)cc2c2nc(C)oc12`: the response in experiment [1] was half-maximal at 531 nM (EC50).
